Tests used:
PC3 (prostate) = experiment: In vitro cytotoxic activity assay (MTT), PC3; format: cell-based; conditions: Homo sapiens, 96 hours exposure, read-out: IC50, 50% inhibition of cell proliferation
Experimental: (§1) Compounds 1-15 were screened for their in vitro cytotoxic activity utilizing a 3-(4,5-dimethyl-thiazol-2-yl)-2,5-diphenyltetrazolium bromide (MTT) assay against selected cancer human cell lines consisting of PC3 (prostate), HCT116 (colon), A375 (melanoma), H1299 (lung), MIAPaCa-2 (pancreas), HL60 (leukemia), MCF7 (breast), MDA-MB-231 (breast) (T. Mosmann, J. Immunol. Meth., 1983, 65, 55-63). The cells were cultured at 37° C. in RMPI1640 medium supplemented with 10% fetal bovine serum, 50 IU/mL penicillin, and 50 µg/mL streptomycin in a 5% CO2 incubator. All cells were sub-cultured 3 times/week by trypsinisation. Viable cells were seeded and allowed to adhere for 12 h before a test drug was added in 96-well plates at an initial density of 1.0×10^5 cells/mL. Tumour cell lines were separately exposed to various concentrations of the tested compounds followed by incubation at a temperature of 37° C. during 96 h inside a medium of fresh RMPI 1640. Cells were subsequently incubated at 37° C. using MTT at 0.5 mg/mL during 4 h. After removal of supernatant, formazan crystals were dissolved in isopropanol and the optical density was measured at 570 nm. CX-4945 was used as a positive control.

HCT116 (colon) = experiment: In vitro cytotoxic activity assay (MTT), HCT116; format: cell-based; conditions: Homo sapiens, HCT-116, 96 hours exposure, read-out: IC50, 50% inhibition of cell proliferation
Experimental: as §1

A375 (melanoma) = experiment: In vitro cytotoxic activity assay (MTT), A375; format: cell-based; conditions: Homo sapiens, A-375, 96 hours exposure, read-out: IC50, 50% inhibition of cell proliferation
Experimental: as §1

H1299 (lung) = experiment: In vitro cytotoxic activity assay (MTT), H1299; format: cell-based; conditions: Homo sapiens, NCI-H1299, 96 hours exposure, read-out: IC50, 50% inhibition of cell proliferation
Experimental: as §1

MIAPaCa-2 (pancreas) = experiment: In vitro cytotoxic activity assay (MTT), MIAPaCa-2; format: cell-based; conditions: Homo sapiens, MIA PaCa-2, 96 hours exposure, read-out: IC50, 50% inhibition of cell proliferation
Experimental: as §1

HL60 (leukemia) = experiment: In vitro cytotoxic activity assay (MTT), HL60; format: cell-based; conditions: Homo sapiens, HL-60, 96 hours exposure, read-out: IC50, 50% inhibition of cell proliferation
Experimental: as §1

MCF7 (breast) = experiment: In vitro cytotoxic activity assay (MTT), MCF7; format: cell-based; conditions: Homo sapiens, 96 hours exposure, read-out: IC50, 50% inhibition of cell proliferation
Experimental: as §1

MDA-MB-231 (breast) = experiment: In vitro cytotoxic activity assay (MTT), MDA-MB-231; format: cell-based; conditions: Homo sapiens, 96 hours exposure, read-out: IC50, 50% inhibition of cell proliferation
Experimental: as §1

[1] = molecular target: T1, recombinant human CK2 (RRββ-holoenzyme) (Homo sapiens, UniProt P68400); experiment: CK2 Kinase Assay (33P-ATP, filter plate); format: biochemical; conditions: final ATP concentration 15 μM, 10 min at 30° C.; read-out: protein kinase CK2 IC50
T1 construct: purchased Millipore
T1 sequence (P68400 whole entry): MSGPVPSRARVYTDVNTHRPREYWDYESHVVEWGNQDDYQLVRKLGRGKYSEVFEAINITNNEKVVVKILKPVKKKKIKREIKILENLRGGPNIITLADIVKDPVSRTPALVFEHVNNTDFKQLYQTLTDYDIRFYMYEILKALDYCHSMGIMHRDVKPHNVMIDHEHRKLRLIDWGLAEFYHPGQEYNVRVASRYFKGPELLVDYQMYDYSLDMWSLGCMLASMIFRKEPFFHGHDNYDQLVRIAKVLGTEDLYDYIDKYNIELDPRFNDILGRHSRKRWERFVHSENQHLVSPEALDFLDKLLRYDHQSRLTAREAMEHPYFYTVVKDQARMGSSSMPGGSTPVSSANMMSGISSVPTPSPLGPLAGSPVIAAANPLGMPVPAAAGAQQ
T1 sequence (P67870 whole entry partner): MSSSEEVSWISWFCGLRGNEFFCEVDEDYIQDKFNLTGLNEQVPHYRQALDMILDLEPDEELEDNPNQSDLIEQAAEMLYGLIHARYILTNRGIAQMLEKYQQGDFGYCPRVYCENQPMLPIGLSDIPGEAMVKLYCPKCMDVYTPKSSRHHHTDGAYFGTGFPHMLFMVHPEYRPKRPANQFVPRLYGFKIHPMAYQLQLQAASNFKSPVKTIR
Experimental: CK2 Kinase Assay was conducted using the protocol as described in Pierre F. et al; J. Med. Chem. 2011, 54, 635-654. The tested compounds in aqueous solution were added at a volume of 10 μL to a reaction mixture comprising 10 μL of assay dilution buffer (ADB; 20 mM MOPS, pH 7.2, 25 mM β-glycerol phosphate, 5 mM EGTA, 1 mM sodium orthovanadate, and 1 mM dithiothreitol), 10 μL of substrate peptide (RRRDDDSDDD, dissolved in ADB at a concentration of 1 mM), 10 μL of recombinant human CK2 (RRββ-holoenzyme, 25 ng dissolved in ADB; Millipore). Reactions were initiated by the addition of 10 μL of ATP solution (90% 75 mMMgCl2, 75 μM ATP (final ATP concentration:15 μM) dissolved in ADB; 10% [γ-33P] ATP (stock 1mCi/100 μL; 3000 Ci/mmol (Perkin-Elmer) and maintained for 10 min at 30° C. The reactions were quenched with 100 μL of 0.75% phosphoric acid and then transferred to and filtered through a phosphor cellulose filter plate (Millipore). After washing each well five times with 0.75% phosphoric acid, the plate was dried under vacuum for 5 min and, following the addition of 15 μL of scintillation fluid to each well, the residual radioactivity was measured using a Wallac […]. The IC50 values were derived from eight concentrations of test inhibitors.

In the case of `Clc1cccc(Nc2nc3c4cnccc4[nH]c3c3cnccc23)c1` [Compound (1), N-(3-chlorophenyl)-11H-pyrido[3′,4′:4,5]pyrrolo[3,2-c][2,6]naphthyridin-5-amine], the IC50 (PC3 (prostate)) is reported as 800 nM, the IC50 (HCT116 (colon)) is reported as 1500 nM and the IC50 (A375 (melanoma)) is reported as 4000 nM. It also gave an IC50 (H1299 (lung)) of 1100 nM, an IC50 (MIAPaCa-2 (pancreas)) of 1400 nM and an IC50 (HL60 (leukemia)) of 3200 nM. It also gave an IC50 (MCF7 (breast)) of 2500 nM, an IC50 (MDA-MB-231 (breast)) of 2900 nM and an IC50 [1] of 21 nM.
